For data set [1] the following is noted: standard for calibration curve; cited from earlier work.
Data set [2] is described as follows: RP-TLC lipophilicity (RM0, log PTLC, C0), silica gel RP-18F254, acetone/TRIS buffer pH 7.4. Type of data set: physicochemical. The conditions noted are these: for RM0: RP-TLC, RM extrapolated to 0% acetone, TRIS buffer pH 7.4; for log PTLC / chromatographic logP: from RM0 by calibration curve log PTLC = 1.2862RM0 + 0.2061; for C0: chromatography hydrophobic index, C0 = −RM0/b. The method, then:
In connection with this, in the next stage of the study, the parameters of lipophilicity of the tested compounds were determined experimentally. […] This technique was used to determine the retardation coefficient Rf for each compound in eight mobile phases consisting of acetone and Tris buffer in different volume ratios (50–85% acetone). Next, the Rf values were converted to the chromatographic parameter RM, and then the obtained values were extrapolated to 0% acetone content in the mobile phase obtaining the lipophilicity parameter RM0 (Table S2).
The parameter RM0 can be correlated to an experimental log P lipophilicity parameter of chemical molecules (log PTLC) by applying a calibration curve. The calibration curve was obtained by determining the Rf value for standard substances with a known log Plit value using the RP-TLC method under conditions analogous to those of the tested substances. After calculating the RM and RM0 values, the dependence of the log Plit parameter on the experimentally obtained RM0 values for standards was determined (Table 2).
The chromatographic parameter of lipophilicity was determined by means of Soczewiński–Wachtmeister’s method. […] The acetone ratio was 50 to 85% (v/v) in increments of 5%. The tested compounds in the form of an ethanol solution at a concentration of 2.0 mg/mL each were spotted on chromatographic plates at an amount of 2 µL each. Before analysis, the chromatography chamber (Camag, Switzerland) was saturated with the mobile phase (50 mL) for 30 min. After development at 20 ± 2 °C and subsequent drying, the chromatograms were observed under UV light at 254 nm by using a Camag UV lamp (Muttenz, Switzerland). Each analysis was performed in triplicate. The average value of the retardation factor (Rf) was used to calculate RM using Equation (1):(1) RM=log(1−Rf/Rf)
In addition, the chromatographic parameter of lipophilicity RM0 and b value allowed the determination of the chromatography hydrophobic index C0 by using the following formula:(3) C0=− RM0/b

The next data set relates to MiaPaCa-2. Also on record: method as in earlier work. The conditions noted are these: cited from earlier work; for IC50: MTT assay; for SI MiaPaCa-2: selectivity index vs HaCaT.
Another data set has as its system MDA. On the set-up: method as in earlier work. The conditions noted are these: cited from earlier work; for IC50: MTT assay; for SI MDA: selectivity index vs HaCaT.
In a further data set the test system is HCT-116 cells. Particulars: cited from earlier work; for IC50: MTT assay, read-out: IC50 HCT116; for SI HCT116: selectivity index vs HaCaT.
The next data set relates to HaCaT cells. The conditions noted are these: MTT assay, normal cells; cited from earlier work.
The next data set deals with A549 cells. Particulars: cited from earlier work; for IC50: MTT assay.
For another data set, the system named is PC3. Also on record: method as in earlier work. Particulars: cited from earlier work; for IC50: MTT assay; for SI PC3: selectivity index vs HaCaT.
In data set [3] the test system is standard strains of staphylococci. Particulars: cited from earlier work; for antibacterial activity: mainly against standard strains of staphylococci.

In the case of `CC(=O)Nc1ccccc1` [acetanilide, reference compound], the “log Plit” value in data set [1] was 1.21 [35]. In addition, in [2], the RM0 was 0.78 and the “log PTLC” value was determined as 1.21.

Consider `c1ccc2cc3ccccc3cc2c1` [anthracene, reference compound], for which, in data set [1], the “log Plit” value was 4.45 [36].

Regarding `O=C(NCCCl)NCCCN1c2cc(Cl)ccc2Sc2cc3ccccc3nc21` [compound 9], in the data set on MiaPaCa-2, the IC50 is 23.2 ± 2.7 µM and the “SI MiaPaCa-2” value is on record as 4.3. In addition, in the data set with MDA, the IC50 was 48.6 ± 7.3 µM and the “SI MDA” value is 2.0. Moreover, in the data set with HCT-116 cells, the half-maximal inhibitory concentration (IC50) was 10.4 ± 1.6 µM and the “SI HCT116” value is reported as 8.8. In the data set on HaCaT cells, the IC50 was less than 100 µM. Besides, the IC50 in the data set with A549 cells was 9.3 ± 1.2 µM. For the same molecule, the “SI A549” value in the data set with A549 cells (selectivity index vs HaCaT) is on record as 10.7. In addition, in the data set with PC3, the IC50 is 34.8 ± 9.8 µM and the “SI PC3” value was 2.8. In [2], the RM0 is listed as 3.47, the C0 amounted to 76.43 and the chromatographic logP came out at 4.66. For the same molecule, the antibacterial activity result in data set [3] was “moderate antibacterial activity”.

Regarding `O=C(NCCCl)NCCCCN1c2cc(Cl)ccc2Sc2cc3ccccc3nc21` [compound 15], in the data set with MiaPaCa-2, the IC50 was 6.4 ± 2.4 µM and the “SI MiaPaCa-2” value is reported as 0.2. Further, in the data set on MDA, the IC50 was 7.4 ± 1.2 µM and the “SI MDA” value was 0.1. Moreover, in the data set with HCT-116 cells, the IC50 is 11.3 ± 2.2 µM and the “SI HCT116” value is listed as 0.1. Besides, the IC50 in the data set with HaCaT cells was 1.1 ± 0.3 µM. The 50% inhibitory concentration (IC50) with A549 cells was 6.98 µM. Besides, in the data set with PC3, the concentration for half-maximal inhibition (IC50) is 76.6 ± 9.8 µM and the “SI PC3” value is 0.1. In data set [2], the RM0 is reported as 3.59, the C0 worked out at 76.22 and the chromatographic logP came out at 4.82. The antibacterial activity result in data set [3] was “moderate antibacterial activity”. Moreover, in data set [3] (standard strains), the MIC was 2 to 8 µg/mL.

`Clc1ccc(C(c2ccc(Cl)cc2)C(Cl)(Cl)Cl)cc1` [p,p’-DDT, reference compound]: in data set [1], the “log Plit” value is 6.38 [37]. In data set [2], the RM0 is recorded as 4.69 and the “log PTLC” value is reported as 6.24.

The values are drawn from paper PMC12384454, “Study of the Lipophilicity of Tetracyclic Anticancer Azaphenothiazines” (Biomolecules, 2025).
